Source: PMC7143538, “New Thiodiketopiperazine and 3,4-Dihydroisocoumarin Derivatives from the Marine-Derived Fungus Aspergillus terreus” (Marine Drugs, 2020)

Target: T1, protein tyrosine phosphatase 1 B (PTP1B) (Homo sapiens, UniProt P18031)
T1 construct: gene PTPN1
T1 sequence (P18031 1-435): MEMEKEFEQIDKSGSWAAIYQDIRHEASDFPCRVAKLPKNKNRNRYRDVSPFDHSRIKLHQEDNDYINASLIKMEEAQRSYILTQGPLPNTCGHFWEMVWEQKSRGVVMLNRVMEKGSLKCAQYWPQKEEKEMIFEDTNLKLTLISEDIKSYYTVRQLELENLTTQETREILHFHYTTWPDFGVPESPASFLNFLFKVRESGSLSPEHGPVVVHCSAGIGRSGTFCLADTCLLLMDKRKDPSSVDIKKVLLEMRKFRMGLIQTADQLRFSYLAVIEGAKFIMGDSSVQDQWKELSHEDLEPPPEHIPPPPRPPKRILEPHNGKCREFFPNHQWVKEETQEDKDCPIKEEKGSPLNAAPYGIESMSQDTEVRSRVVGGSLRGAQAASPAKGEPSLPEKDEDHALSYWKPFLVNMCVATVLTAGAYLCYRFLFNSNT
Assay: pNPP phosphatase assay, human recombinant PTP1B, absorbance at […] nm
Assay type: biochemical

SMILES | IC50
CS[C@@]1(Cc2ccccc2)NC(=O)[C@@](Cc2ccccc2O)(SC)NC1=O [compound 3, emethacin C] | 12.3 µM
CS[C@@]12CC3=CC=C[C@H](OC(C)=O)[C@H]3N1C(=O)[C@]1(SC)CC3=COC=C[C@H](OC(C)=O)[C@H]3N1C2=O [compound 5, bisdethiobis(methylsulfanyl)acetylapoaranotin] | 25.7 µM
CS[C@@]12CC3=COC=C[C@H](OC(C)=O)[C@H]3N1C[C@]1(SC)CC3=COC=C[C@H](O)[C@H]3N1C2 [compound 7, alternarosin A] | 24.3 µM
